Data reported in patent US9918968B2, “Rapamycin analogs targeting proteasome function in the treatment of cancer” (THE BOARD OF REGENTS OF THE UNIVERSITY OF TEXAS SYSTEM, priority 2013, dated 2018).

How the values were obtained:
[1] = tested on: T1, 20S proteasome α face; experiment: AFM imaging of open/closed conformers of 20S proteasome α face; parameters: species or system human; conditions: 10 μM compound
T1 construct: purchased Enzo LifeSciences
Procedure: AFM imaging of the 20S proteasomes were performed as previously described, in tapping (oscillating) mode in liquid (Osmulski et al., 2009 and Gaczynska and Osmulski, 2011). In short, 3 μL of proteasome preparations diluted to nanomolar concentration were deposited on a freshly cleaved muscovite mica surface. After 2 min incubation allowing electrostatic attachment of the protein particles to mica the droplet was overlaid with 30 microL of 50 mM Tris-HCl buffer (pH 7.0) and mounted in the wet chamber of a MultiMode NanoScope Ma (Bruker Corp.). Oxide-sharpened silicon nitride tips on cantilevers with a nominal spring constant 0.32 N/m (Bruker Corp.) were used to image 1 μm^2 fields in the height mode, with a scan rate of 3.05 Hz. The excitation frequency was manually tuned to 9-10 kHz, with a drive voltage of 200-500 mV and a relatively high set point (1.6 V to 1.9 V) to assure tapping with low, non-destructive force. […] As the inventors established previously, such resolution was sufficient to detect distinct conformations of the α face, covered by six scan lines. Multiple fields were scanned for each sample to collect images of hundreds of particles. Selected fields were repeatedly scanned to monitor changes in topography of the same particles for prolonged time. Inhibitors and the SucLLVY-MCA substrate were diluted in 10 μL of the imaging buffer and directly injected into the chamber. Raw images are presented, with a standard plain-fit and flattening (NanoScope software v.5.12) used as the only processing tools. For display purposes the brightness and contrast of the images was adjusted with the Nanoscope software or with Adobe Photoshop (Adobe Systems Inc.), and outlier scan lines were occasionally manually removed (Nanoscope software). Top view (“standing”, rounded) proteasomes were distinguished from the minor population of side-view (“lying”, rectangular) particles as described, by comparison of their length—to width ratios (Osmulski et al., 2009). The dimensions of particles were approximated and a shape of the α face in top-view proteasomes was judged with the help of a section tool in the Nanoscope v.5.12 or SPIP v.6.02 software (Image Metrology).
For this purpose, the inventors used the noninvasive tapping mode atomic force microscopy (AFM) in liquid, the imaging technique suitable for analysis of surface topography of macromolecules in their native state with a nanometer-scale practical resolution. The inventors established before that AFM imaging is a useful tool for studying structural dynamics of the 20S α face (Osmulski et al., 2009, Gaczynska et al., 2003; Gaczynska et al., 2011). They acquired and analyzed images of hundreds of single native, fully active 20S molecules. The majority of particles were in top-view (“standing”) position conveniently allowing for imaging of their α faces. […] Following previous extensive studies, the inventors refer to the two forms as “closed-gate” and “open-gate” proteasomes, respectively (Osmulski et al., 2009). As described before, the inventors used the shape of sections carried out in four directions through the top portion of the surface topography of the α ring to distinguish between the two forms. In short, the particle was classified as closed if all four sections were cone-shaped. In contrast, the particle was classified as open if all sections presented a dip surrounded by a rim (FIG. 5A) (Osmulski, et al., 2009). The same particles imaged in consecutive scans were able to assume either closed or open conformations, however the cone-shaped particles were always more abundant than crater-shaped, and accounted for about three-quarters of the imaged molecules (FIG. 5B). Addition of rapamycin to the imaged particles remarkably changed the partition of forms. […]

[2] = tested on: T2, human 20S proteasome, T-L peptidase; experiment: T-L peptidase activity of purified human 20S proteasome (BocLRR-MCA); type: biochemical
T2 construct: purchased Enzo LifeSciences
Procedure: Human purified proteasome complexes were purchased from Enzo LifeSciences or Boston Biochemicals (19S complex). BODIPY-casein (Invitrogen/Molecular Probes) was used as a model protein substrate, with increasing fluorescence of BODIPY labeled peptide products of degradation monitored for up to 8 hours at 37° C. The peptidase activity of the enzyme was measured as arbitrary intensity units of the released fluorescent group 7-amino-4-methylcoumarin (AMC) from peptide substrates, as described. The common substrates specific for the three kinds of active sites: succinyl-LeuLeuValTyr-7-amido-4-methylcoumarin (Suc-LLVY-MCA; for the ChT-L activity; Bachem), butoxycarbonyl-LeuArgArg-MCA (BocLRR-MCA; for T-L; Bachem) and carbobenzoxy-LeuLeuGlu-MCA (CbzLLE-MCA; for PGPH; Enzo Life Sciences International, Inc.) were used at 100 μM final concentrations, unless stated otherwise (Gaczynska and Osmulski, 2005). Proteasome substrates, rapamycin, its derivatives, and competing peptides were stocked in DMSO and diluted 100-fold in the reaction mixtures. The Rpt5 and PA200 C-terminal peptides were synthesized in the Departmental Peptide Synthesis Core using the standard SPPS chemistry. To activate the latent 20S proteasome, 0.005% (final concentration) of sodium dodecyl sulfate (SDS) was used. The reactions were carried out in 96 well plates, with 2.3 nM proteasome and other components as indicated dissolved in 50 mM Tris-HCl buffer (pH 8.0) and incubated at 37° C. for up to 1 hour. The fluorescence of products was monitored every 2 minutes with a Fluoroskan Ascent plate reader. Reaction rates were calculated from smoothed linear segment of kinetic curves using OriginPro 8.6 (OriginLabs, Northampton, Mass.). For the determination of an inhibition type, at least six distinct substrate concentrations and two inhibitor concentrations were used. The kinetic parameters of inhibition were analyzed in terms of the Michaelis-Menten formalism using the enzyme kinetic module of SigmaPlot v.12 (Systat Software, Inc, San Jose, Calif.) to perform the respective calculations.
IC50 values (a drug concentration causing 50% inhibition of the indicated enzymatic activity) were calculated for ChT-L and PGPH peptidases. Kd (dissociation constant) and Bmax (maximal activation effect achieved; in % above the control activity) values were calculated for the T-L peptidase. Mean±SD from n=2 or 3 experiments, or data from representative experiments set in duplicates or triplicates, are presented in the table. All three peptidase activities changed by no more than ±20%, without a concentration-dependent trend, upon treatment with up to 10 μM of rapamycin unrelated mTOR inhibitors PI-103 or NVP-BEZ235, in two independent experiments.

Compound: CO[C@@H](C[C@@H]1CC[C@@H](C)[C@](O)(C(=O)C(=O)N2CCCC[C@H]2C(=O)[O-])O1)/C(C)=C/C=C/C=C/[C@@H](C)C[C@@H](C)C(=O)[C@H](OC)[C@H](O)/C(C)=C/[C@@H](C)C(=O)/C=C/[C@H](C)C[C@@H]1CC[C@@H](O)[C@H](OC)C1.[Na+] [seco-rapamycin]
- closed conformers [1]: ~40%
- open conformers [1]: about 60%
- activation of post-basic (T-L) cleavages ([2]; 5 μM): ~2 fold
- Kd ([2]; activation of T-L peptidase): 5.33 µM
- Bmax [%]: T-L ([2]; maximal activation effect, % above the control activity): 77%
